Results reported in patent publication US7919481B2, “Inositol pyrophosphates, and methods of use thereof” (NormOxys, Inc., priority 2002, dated 2011).
Like-named read-outs stand apart in the source and are kept apart here. One block for each compound: values may come before it.

Legend:
[1] = 1-octanol/water partition coefficient Kow; format: physicochemical; settings: after equilibration at 30 mM
Experimental: Partition coefficients relate to the distribution of a solute between two immiscible liquid phases and are defined as the ratios of concentrations (or molar fraction) of the distributed solute.
The partition coefficients for our compounds, Kow=[ITPP]1-octanol/[ITPP]water, were measured after equilibration at a concentration of 30 mM, close to the typical concentration employed for biological evaluations.

porcine whole blood = assay: In vitro P50 of porcine whole blood with effector (iso-osmolar); format: cell-based, pig; settings: for P50 mm Hg: control 33.5
Experimental: (§1) Two further effectors, kf133 and kf137, were tested in vitro for P50 shifts with porcine hemoglobin and whole blood. The compounds were well soluble. As usual, pH was adjusted to ˜7.0 and effector solution (2.5 mM) and hemoglobin (2.5 mM) were mixed at a 1:1 ratio. Whole blood and the effector solution were mixed at iso-osmolarity at pH=7. P50 values were measured as described in the previous experiments.

porcine hemoglobin = porcine hemoglobin (Sus scrofa, UniProt P02067); assay: In vitro P50 of porcine free hemoglobin with effector; format: biochemical, pig; settings: porcine free hemoglobin 2.5 mM, effector 2.5 mM, 1:1; for P50 mm Hg: control 20.4, 19.9
porcine hemoglobin, sequence (P01965 whole entry partner): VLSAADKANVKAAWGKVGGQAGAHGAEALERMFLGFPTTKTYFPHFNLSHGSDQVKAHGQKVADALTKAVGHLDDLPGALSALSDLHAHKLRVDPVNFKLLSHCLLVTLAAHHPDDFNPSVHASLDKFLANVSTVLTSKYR
porcine hemoglobin, sequence (P02067 2-147 limits assumed): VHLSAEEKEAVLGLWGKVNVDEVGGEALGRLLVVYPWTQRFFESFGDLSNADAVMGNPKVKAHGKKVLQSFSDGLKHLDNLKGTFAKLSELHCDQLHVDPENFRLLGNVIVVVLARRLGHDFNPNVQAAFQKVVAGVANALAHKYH
Experimental: as §1

C57BL/6 mice = assay: Tolerability of intraperitoneal injection in mice; format: in vivo; settings: concentration of (up to) 120 mM
[2] = Toxicity, general statements on the biological experiments; format: in vivo; settings: general statement
[3] = Solubility of effector solutions; format: physicochemical; settings: pH ~7.0
Experimental: as §1

circulating RBC = assay: P50 shift of circulating RBC after (intraperitoneal) injection in mice; settings: maximum; for shift in the Hb-O2 dissociation curve: IP injection
whole blood = assay: In vitro incubation of whole blood of three species, summary statements; format: cell-based, human, mouse and pig; settings: whole blood of human, mouse and pig, 60 mM
Experimental: (§2) As usual, pH's for the compound-solutions were adjusted to ˜7.0, osmolarities for both solutions were determined (325-373 mOsM) prior to effectors, and whole blood volumes at 1:1 ratios were incubated.

pig whole blood = assay: In vitro P50 in whole blood after incubation with effector; format: cell-based; settings: effector 60 mM
Experimental: as §2

human whole blood = assay: as above; format: cell-based; settings: effector 60 mM
Experimental: as §2

mouse whole blood = assay: as above; format: cell-based; settings: effector 60 mM
Experimental: as §2

[4] = Chemical hydrolysis of IHP-pyrophosphate at alkaline pH (31P-NMR); format: physicochemical
Experimental: Experiments designed to test IHP-pyrophosphate's resistance to chemical hydrolysis were conducted. ITPP N,N-dimethyl-cyclohexylammonium salt solutions were adjusted at pH 8.66, 10.20, 12.05 and 13.30. In order to avoid any damage to the NMR tubes due to the highly alkaline solutions, all samples were checked using ^31P-NMR at different time intervals against an external Ph3PO/DMSO solution. This method also avoided concentrating the samples and redissolving them in a deuterated solvent, which may have led to changes in the results. […] Observing this stability, we exposed the pH=13.30 sample to heat at 60° C. for 6 h. […] After 22 h at the same temperature, hydrolysis was only 19%. Facing this extreme stability to chemical hydrolysis we concentrated to dryness both solutions of pH 10.20 and 13.30 and dissolved them in D2O.

baker's yeast = format: in vitro ADME; settings: pH 4.6
Experimental: ITPP was dissolved in a buffer solution of a pH 4.6 and heated in the presence of baker's yeast for 12 h at 45° C. Non selective hydrolysis of approximately 25% occurred.

stripped hemoglobin = stripped hemoglobin (Homo sapiens, UniProt P68871); settings: cited from earlier work
stripped hemoglobin, sequence (P69905 2-142 partner limits assumed): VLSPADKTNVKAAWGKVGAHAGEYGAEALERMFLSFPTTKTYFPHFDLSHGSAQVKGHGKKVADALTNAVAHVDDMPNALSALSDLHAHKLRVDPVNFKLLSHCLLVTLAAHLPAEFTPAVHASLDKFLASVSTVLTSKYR
stripped hemoglobin, sequence (P68871 2-147 limits assumed): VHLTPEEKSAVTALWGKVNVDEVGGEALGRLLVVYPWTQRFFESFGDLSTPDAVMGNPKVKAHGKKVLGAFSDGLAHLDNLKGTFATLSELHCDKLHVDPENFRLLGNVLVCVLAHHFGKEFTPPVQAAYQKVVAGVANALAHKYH

[5] = porcine whole blood, iso-osmolarity, pH=7

Compound: NC1CCCCCCC1.NC1CCCCCCC1.NC1CCCCCCC1.NC1CCCCCCC1.NC1CCCCCCC1.NC1CCCCCCC1.O=P1(O)OP(=O)(O)O[C@H]2[C@H](O1)[C@@H]1OP(=O)(O)OP(=O)(O)O[C@@H]1[C@H]1OP(=O)(O)OP(=O)(O)O[C@H]21 [cyclooctylammonium ITPP salt]
Kow=[ITPP]1-octanol/[ITPP]water [1]: 0.462

Compound: IHP monopyrophosphate hexasodium salt [kf133]
P50 Increase % (porcine whole blood; [5]): 14.5%
P50 mm Hg (porcine whole blood; [5]): 38.4 mm Hg
P50 Increase % (porcine hemoglobin): 143%
P50 mm Hg (porcine hemoglobin): 48.5 mm Hg
tolerability in mice (C57BL/6 mice): well tolerated
toxicity / tolerability [2]: non-toxic
solubility [3]: well soluble

Compound: IHP Cholesteryoxy Carbonyl Hepta N,N-Dimethyl Cyclohexyl Ammonium Salt [kf16.4]
right shift in the P50 (circulating RBC; ip, 6 animals): up to 18%

Compound: IHP Cholesteryoxy Carbonyl Hepta N,N-Dimethyl Cyclohexyl Ammonium Salt [kf96]
shift in the Hb-O2 dissociation curve (circulating RBC; 30 mM): up to 17%
shift in the Hb-O2 dissociation curve (circulating RBC; 60 mM): up to 24%
right shift in the Hb-O2 dissociation curve, all blood samples (whole blood): 27%
P50 Increase % (pig whole blood; 1:1): 27%
P50 mm Hg (pig whole blood; 1:1, control 32.2): 41.1 mm Hg
P50 Increase % (human whole blood; 1:1): 27%
P50 mm Hg (human whole blood; 1:1, control 22.1): 28 mm Hg
P50 Increase % (mouse whole blood; 1:1): 20%
P50 mm Hg (mouse whole blood; 1:1, control 36.7): 43.9 mm Hg

hydrolysis (changes in 31P-NMR) ([4]; pH 8.66, 10.20, 12.05, after 3 days): No changes were observed
change after concentration to dryness ([4]; pH 10.20, redissolved in D2O): remained unchanged
hydrolysis ([4]; pH=13.30, 60° C. for 6 h): 13%
hydrolysis ([4]; pH=13.30, 60° C., after 22 h): 19%
hydrolysis ([4]; pH=13.3, after 3 days): 7%
Compound: N,N-Dimethyl cyclohexyl ammonium Salt of Myo-inositol 1,6:2,3:4,5-Tripyrophosphate
change after concentration to dryness ([4]; pH=13.30, redissolved in D2O): completely converted to the IHP open form sodium salt

Kow=[ITPP]1-octanol/[ITPP]water [1]: 0.0121
Compound: NC1CCCCCC1.NC1CCCCCC1.NC1CCCCCC1.NC1CCCCCC1.NC1CCCCCC1.NC1CCCCCC1.O=P1(O)OC2C3OP(=O)(O)OP(=O)(O)OC3C3OP(=O)(O)OP(=O)(O)OC3C2OP(=O)(O)O1 (stereo not shown) [cycloheptylammonium ITPP salt]

Compound: Hexanoy-IHP NN-DMCHA salt [kf137]
lysis of the RBC (porcine whole blood; porcine whole blood in vitro): Noticeable lysis
P50 mm Hg (porcine whole blood; [5]): 51.5 mm Hg
P50 Increase % (porcine hemoglobin): 120%
P50 mm Hg (porcine hemoglobin): 45.1 mm Hg
tolerability in mice (C57BL/6 mice): well tolerated
solubility [3]: well soluble

non selective enzymatic hydrolysis (baker's yeast): approximately 25%
Compound: O=P1(O)OC2C3OP(=O)(O)OP(=O)(O)OC3C3OP(=O)(O)OP(=O)(O)OC3C2OP(=O)(O)O1 (stereo not shown) [ITPP, inositol tripyrophosphate]

Compound: O=C(O)[C@@H](COP(=O)(O)O)OP(=O)(O)O [2,3-Diphosphoglycerate, 2,3-diphosph-D-glyceric acid]
O2 half-saturation pressure P(O2)(½) of stripped hemoglobin (stripped hemoglobin; pH 7.4, 25° C.): 12.0 mm Hg
O2 half-saturation pressure P(O2)(½) of stripped hemoglobin (stripped hemoglobin; pH 7.4, 37° C.): 23.7 mm Hg
